Laboratory results as given in patent US20240336617A1, “Substituted Bimane Compounds and Methods of Use Thereof” (THE TRUSTEES OF THE UNIVERSITY OF PENNSYLVANIA, priority 2023, published 2024).
Entries after “also recorded” stand apart in the source; their conditions may differ. Where two headings read alike, the source gives them in different places.

Legend:
[1] = Molar absorptivity determination; format: physicochemical;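 also: molar absorptivity derived from UV-Vis absorbance spectra recorded for each derivative on a spectrometer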
Description: The absorbance spectrum of each derivative (150 μL) was measured on a Thermo Scientific Genesys 150 UV-Vis spectrometer, using 50:50 ACN/PBS as a blank.
Molar absorptivity determination. […] The absorbance spectrum of each derivative (150 μL) was measured on a Thermo Scientific Genesys 150 UV-Vis spectrometer, using 50:50 ACN/PBS as a blank.

[2] = molecular target: T1, Aβ1-42 fibrils (Homo sapiens, UniProt P05067); assay: Fluorescence and excitation spectra with Aβ1-42 fibrils; format: binding
T1 construct: The β-amyloid (1-42) peptide, human; purchased Genscript RP10017
T1 sequence (P05067 672-713): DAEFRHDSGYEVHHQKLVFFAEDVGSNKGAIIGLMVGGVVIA
Description: (§1) Fluorescence measurements were performed using a PTI QuantaMaster™ 40 fluorescence spectrometer. Fluorescence spectra of 10 μM probes (concentrated stock solution prepared as 10 mM in DMSO) (7j, 7k, 7l, 7m, and ThT) in PBS buffer were measured in the absence and presence of 50 μM Aβ1-42 fibrils (stock solution 1 mM Aβ1-42 in 10 mM phosphate buffer, pH 7.4).
(§2) Excitation spectral measurements were performed using a PTI QuantaMaster™ 40 fluorescence spectrometer. Excitation spectra of 10 μM probes (concentrated stock solution prepared as 10 mM in DMSO) (7j, 7k, 7l, 7m, and ThT) in PBS buffer were measured in the absence and presence of 50 μM Aβ1-42 fibrils (stock solution 1 mM Aβ1-42 in phosphate buffer).
as §1, with “(5j, 5k” for “(7j, 7k, 7l, 7m,”, “Ab1-42” for “Aβ1-42”
as §2, with “QuantaMaster” for “QuantaMaster™”, “(5j, 5k” for “(7j, 7k, 7l, 7m,”, “Ab1-42” for “Aβ1-42”, “buffer). […]” for “buffer).”

[3] = Fluorescent quantum yield (QY) measurements; format: physicochemical
Description: For each QY measurement, the incident excitation light spectrum was collected with 1 mL of solvent. […] Using the JASCO Quantum Yield Software, the dye QY was calculated by dividing the dye fluorescence intensity by the difference in incident light intensity in the presence and absence of dye. The minimum excitation wavelength for a full excitation incident spectrum using this setup is 360 nm.
Fluorescent quantum yield (QY) measurements. For each QY measurement, the incident excitation light spectrum was collected with 1 mL of solvent. After measuring the incident light intensity, dye (3 and 5a-5k) was added to the solvent from a concentrated stock solution to a final concentration of […] and the new spectrum (fluorescence intensity and new incident light intensity) was collected. Using the JASCO Quantum Yield Software, the dye QY was calculated by dividing the dye fluorescence intensity by the difference in incident light intensity in the presence and absence of dye. The minimum excitation wavelength for a full excitation incident spectrum using this setup is 360 nm.

[4] = Fluorescence (emission) measurements; format: physicochemical;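 also: fluorescence emission spectra recorded on a spectrofluorometer, with each compound excited at its own absorption maximum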
Description: The fluorescence spectrum of each derivative (150 μL) was measured on a Photon Technology International (PTI) QuantaMaster™ 40 fluorescence spectrometer by excitation at the maximum absorption wavelength for each compound.
The fluorescence spectrum of each derivative (150 μL) was measured on a Photon Technology International (PTJ) QuantaMaster™ 40 fluorescence spectrometer by excitation at the maximum absorption wavelength for each compound.

[5] = Absorbance measurements (UV-Vis); details: 25 μM
Description: Samples were individually diluted to the final concentration of 25 μM (500 μL) using 50:50 acetonitrile in phosphate buffered saline (ACN/PBS). The absorbance spectrum of each derivative (150 μL) was measured on a Thermo Scientific Genesys 150 UV-Vis spectrometer, using 50:50 ACN/PBS as a blank.

[6] = molecular target: T2, amplified αS fibrils (AFs) from AD patient brain extracts (Homo sapiens, UniProt P37840); assay: Fluorescence measurements with AD patient cases (lysate, AFs, PFFs); format: binding; details: lysate or AFs and probe 1 μM
T2 construct: made in house; host or cells: recombinant αS monomer, seeded with sarkosyl-insoluble extract of human frontal cortex (AD or PDD)
Description: All procedures were performed in accordance with local institutional review board guidelines. Written informed consent for autopsy and analysis of tissue sample data was obtained either from patients themselves or their next of kin. Frozen postmortem human frontal cortex brain tissues from three patients diagnosed with Alzheimer's disease (AD) and three patients diagnosed with Parkinson's disease with dementia (PDD) were selected for sequential extraction of αS aggregates based on a high burden of αS pathology determined by immunohistochemical staining. […] These final sarkosyl-insoluble fractions are referred to as “brain extracts.: The amount of αS in the brain extracts was determined by sandwich ELISA using Syn9027, a mono-clonal antibody (Mab) to αS, and the protein concentrations were examined by bicinchoninic acid (BCA) assay. […]
(§3) Brain-derived αS aggregates in extract samples from three AD and three PDD cases (FIG. 38A) were used as seeds for templated aggregation of recombinant αS monomer. […] After seven days of incubation, amplification progress was determined by removing an aliquot and diluting tenfold in DPBS to a final αS concentration of 3.5 μM. […] Equal volumes of supernatant and pellet fractions were analyzed on SDS-PAGE gels and Western blot, with amplified aggregates migrating to the pellet fraction (FIG. 38B). […]

[7] = background statement; cited from earlier work
[8] = molecular target: T3, amplified αS fibrils (AFs) from PDD patient brain extracts (Homo sapiens, UniProt P37840); assay: Fluorescence measurements with PDD patient cases (lysate, AFs, PFFs); format: binding; details: lysate or AFs and probe 1 μM
T3 construct: made in house; host or cells: recombinant αS monomer, seeded with sarkosyl-insoluble extract of human frontal cortex (AD or PDD)
Description: All procedures were performed in accordance with local institutional review board guidelines. Written informed consent for autopsy and analysis of tissue sample data was obtained either from patients themselves or their next of kin. Frozen postmortem human frontal cortex brain tissues from three patients diagnosed with Alzheimer's disease (AD) and three patients diagnosed with Parkinson's disease with dementia (PDD) were selected for sequential extraction of αS aggregates based on a high burden of αS pathology determined by immunohistochemical staining. In brief, 5-10 g of frontal cortical gray matter were homogenized in five volumes (W/V) of high-salt (HS) buffer (50 mM Tris-HCl pH 7.4, 750 mM NaCl, 10 mM NaF, 5 mM EDTA) with protease and protein phosphatase inhibitors, incubated on ice for 20 min and centrifuged at 100,000×g for 30 min. The pellets were then re-extracted with HS buffer, followed by sequential extractions with five volumes of 1% Triton X-100-containing HS buffer and 1% Triton X-100-containing HS buffer with 30% sucrose. The pellets were then re-suspended and homogenized in 1% sarkosyl-containing HS buffer, rotated at room temperature for 2 h or at 4° C. overnight and centrifuged at 100,000×g for 30 min. […] These final sarkosyl-insoluble fractions are referred to as “brain extracts.: The amount of αS in the brain extracts was determined by sandwich ELISA using Syn9027, a mono-clonal antibody (Mab) to αS, and the protein concentrations were examined by bicinchoninic acid (BCA) assay. […]
as §3

[9] = tested on: αS fibrils versus tau fibrils; assay: Amyloid selectivity by plate reader, αS versus tau fibrils; format: binding
Description: Experiments were performed on the Tecan Spark in Greiner 96 well flat black ½ area plates using the following parameters: excitation and emission band widths 5 nm, lag time 0 μs, integration time 40 μs. A 10 mM DMSO stock solution of probes (7j-7m) and 100 μM stock of αS fibrils were used in the study described herein.

| ε ([1]; ACN only) [M⁻¹ cm⁻¹] | ε ([1]; ACN:PBS (50:50 v/v)) [M⁻¹ cm⁻¹] | Q.Y. ([3]; ACN only) [%] | Q.Y. ([3]; ACN:PBS (50:50 v/v)) [%] | Stokes shift ([4]; ACN only) [nm] | Em. λem ([4]; ACN only, 25 μM) [nm] | Stokes shift ([4]; ACN:PBS (50:50 v/v)) [nm] | Abs. λabs ([5]; ACN only) [nm] | Abs. λabs ([5]; ACN:PBS (50:50 v/v)) [nm] | Compound | fluorescence turn on with Aβ1-42 fibrils [2] | fluorescence detection of AD amplified fibrils (AFs) [6] | Stokes shift [7] [nm] | fluorescence detection of PDD amplified fibrils (AFs) [8] | turn on with αS and tau fibrils [9] |
| --- | --- | --- | --- | --- | --- | --- | --- | --- | --- | --- | --- | --- | --- | --- |
| 25212 | 22370 | 44.2 | 0.77 | 189 | 624 | 195 | 435 | 447 | Cc1c(C)n2c(/C=C/c3nc4ccc(N(C)C)cc4s3)c(C)c(=O)n2c1=O [Compound 8f, (E)-3-(2-(6-(dimethylamino)benzo[d]thiazol-2-yl)vinyl)-2,5,6-trimethyl-1H,7H-pyrazolo[1,2-a]pyrazole-1,7-dione] | high turn on of fluorescence in the presence of PFFs; also recorded: selective fluorescence increases in the presence of Aβ1-42 fibrils |  |  |  |  |
|  |  |  |  |  |  |  |  |  | Cc1ccc2c(c1)sc(-c1ccc(N(C)C)cc1)[n+]2C.[Cl-] [ThT, Thioflavin-T, reference compound] |  | barely registers significance for detection of AFs in AD samples | ~50 | does not effectively detect these amplified fibrils; also recorded: unable to differentiate the lysates and AFs of PDD samples | high turn on with both αS and tau; also recorded: high turn-on with both αS and tau |
